Experiment: Fluorescence titration of compound 1 with Cu^2+ (Stern-Volmer plot, detection limit)
Format: binding
Description: All of the absorption and emission studies were carried out in mixed aqueous solutions of water and methanol (4:1) containing HEPES buffer (10 mM, pH 7.4) at a concentration of 20 μM and 0.2 μM respectively. Emission studies were carried out by addition of 10 equiv of various biologically and non-biologically relevant metal cations to an aqueous-MeOH (4:1) solution of compound 1 at a concentration level of 0.2 μM and their complexation abilities were studies by fluorescence. […] Importantly, none of the other cations induced any such distinct emission shift or quenching (FIG. 7). […] Fluorescence titration of compound 1 with Cu^2+ was carried out in aqueous MeOH (4:1) solution at a concentration level of 0.2 μM. The addition of Cu^2+ to the solution of compound 1 caused a complete quenching of the fluorescent emission and the peak at 525 nm (Φ=0.32) is “switched off” when excited at 502 nm (FIG. 9). […]
Thus, it can be assumed that the quenching of the fluorescence of compound 1 by Cu^2+ ion is a static quenching mode due to the formation of a non-fluorescent complex in the ground state. […] From the Stern-Volmer linear plot (FIG. 14) the binding constant of compound 1 with Cu^2+ was calculated to be 1.0×10^7 L·mol^−1 (error limits≤10%).

binding constant with Cu^2+ from Stern-Volmer linear plot (H2O:MeOH (4:1), HEPES 10 mM, pH 7.4, λex=502 nm, error limits≤10%): 1e+07 L/mol
SMILES: Cn1ccnc1/C=N/N1C(=O)c2ccccc2C12c1ccc(O)cc1Oc1cc(O)ccc12 [compound 1, Fluorescein-N-methylimidazole conjugate]
effect of Cu^2+ on fluorescence emission at 525 nm (0.2 μM compound, excitation 502 nm): completely quenched

Source: patent US10106684B2, “Method for making Schiff base” (KING FAHD UNIVERSITY OF PETROLEUM AND MINERALS, priority 2016, dated 2018)
